{
  "source": "patent US20100305098A1",
  "about": "“METHODS OF USE” (priority 2007, published 2010)",
  "key": {"PAC1": {"target": "T1, PAC1 (Homo sapiens, UniProt P41586)", "T1 construct": "Millipore", "T1 sequence (P41586 21-468)": "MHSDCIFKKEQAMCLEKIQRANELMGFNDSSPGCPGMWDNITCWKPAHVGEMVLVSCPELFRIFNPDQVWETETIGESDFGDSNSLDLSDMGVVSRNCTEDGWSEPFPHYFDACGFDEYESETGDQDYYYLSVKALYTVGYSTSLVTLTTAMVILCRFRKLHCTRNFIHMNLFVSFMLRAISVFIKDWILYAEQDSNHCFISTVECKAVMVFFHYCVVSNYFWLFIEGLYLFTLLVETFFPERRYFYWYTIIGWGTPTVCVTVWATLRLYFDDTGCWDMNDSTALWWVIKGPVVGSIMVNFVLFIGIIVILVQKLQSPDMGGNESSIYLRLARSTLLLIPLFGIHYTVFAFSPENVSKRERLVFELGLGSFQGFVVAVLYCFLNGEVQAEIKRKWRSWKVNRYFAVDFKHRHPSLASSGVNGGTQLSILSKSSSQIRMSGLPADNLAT", "experiment": "FLIPR functional screen", "type": "cell-based", "conditions": "antagonist mode"}, "PAR4": {"target": "T2, PAR4 (Homo sapiens, UniProt Q96RI0)", "T2 construct": "Millipore", "experiment": "FLIPR functional screen", "type": "cell-based", "conditions": "antagonist mode"}, "CB2": {"target": "T3, CB2 (Homo sapiens, UniProt P34972)", "T3 construct": "Millipore", "experiment": "FLIPR functional screen", "type": "cell-based", "conditions": "antagonist mode"}, "CIA mouse": {"test_system": "CIA mouse", "experiment": "Suppression of arthritis development in CIA", "type": "in vivo", "description": "Suppression of arthritis development in CIA. DBA1/J mice were immunized with bCII/CFA at day 0 then boosted at day 21 with bCII/IFA. Arthritis development was monitored over the course of study. The arthritis score is as follows: 0=normal paw, score of 1=1-2 digit inflamed paws; score of 2=3 digits or 1-2 digit+wrist or ankle inflamed, score of 3=hand+more than 2 digits inflamed; and score of 4=multiple digits (3-4)+important wrist or ankle inflammation.\n(A) Partial therapeutic evaluation of compounds. Active compound was given by oral dosing once daily at the dose indicated from day 20 after induction of antibodies to collagen II but before disease development. (B) Full therapeutic evaluation of compound. Active compound was given after disease was developed (from day 7 after the second immunization). (C) X-ray analysis of mouse paws from full therapeutic CIA study. X-ray score is the index of measurement of combination of osteopenia, bone erosion and new bone formation. (D) Representative X-ray radiographs.\nCollagen induced arthritis model. Male DBA/1 mice were immunized intradermally at the base of the tail with 0.1 ml emulsion, containing 150 μg bovine type II collagen emulsified in Freund's complete adjuvant. Three weeks after 1st immunization, all mice were boosted with bovine type II collagen emulsified in Freund's incomplete adjuvant. The severity of arthritic symptoms in the paws of each mouse was graded according to Wood et al. in accordance with known techniques.\nSeveral studies were performed in the mouse CIA model to evaluate anti-arthritic effects of ER-819924-01. Initially ER-819924-01 was studied in a partial therapeutic dosing regimen in which compounds were orally administered daily from day 20 (i.e. after induction of pathogenic anti-type II collagen antibodies, but before arthritis development). Arthritis score (measured as an inflammatory response index of inflamed paw) and body weight were monitored over two weeks. […] We also studied ER-819924-01 in a full therapeutic dosing regimen in which compounds were dosed after the induction of disease."}, "EP2": {"target": "T4, EP2 (Homo sapiens, UniProt P43116)", "T4 construct": "Millipore", "experiment": "FLIPR functional screen", "type": "cell-based", "conditions": "antagonist mode"}, "GPR41": {"target": "T5, GPR41 (Homo sapiens, UniProt O14843)", "T5 construct": "Millipore", "T5 sequence (O14843 whole entry, species assumed)": "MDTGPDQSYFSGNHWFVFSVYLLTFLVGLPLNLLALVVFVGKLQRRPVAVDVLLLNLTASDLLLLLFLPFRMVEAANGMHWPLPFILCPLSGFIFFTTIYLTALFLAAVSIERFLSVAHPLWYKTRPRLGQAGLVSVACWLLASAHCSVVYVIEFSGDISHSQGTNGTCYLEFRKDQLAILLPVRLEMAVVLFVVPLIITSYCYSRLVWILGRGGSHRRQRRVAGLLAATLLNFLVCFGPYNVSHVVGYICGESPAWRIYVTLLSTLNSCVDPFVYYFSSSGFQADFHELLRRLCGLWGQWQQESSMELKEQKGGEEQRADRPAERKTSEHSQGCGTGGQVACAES", "experiment": "FLIPR functional screen", "type": "cell-based", "conditions": "antagonist mode"}, "CCK1": {"target": "T6, CCK1 (Homo sapiens, UniProt P32238)", "T6 construct": "Millipore", "T6 sequence (P32238 whole entry)": "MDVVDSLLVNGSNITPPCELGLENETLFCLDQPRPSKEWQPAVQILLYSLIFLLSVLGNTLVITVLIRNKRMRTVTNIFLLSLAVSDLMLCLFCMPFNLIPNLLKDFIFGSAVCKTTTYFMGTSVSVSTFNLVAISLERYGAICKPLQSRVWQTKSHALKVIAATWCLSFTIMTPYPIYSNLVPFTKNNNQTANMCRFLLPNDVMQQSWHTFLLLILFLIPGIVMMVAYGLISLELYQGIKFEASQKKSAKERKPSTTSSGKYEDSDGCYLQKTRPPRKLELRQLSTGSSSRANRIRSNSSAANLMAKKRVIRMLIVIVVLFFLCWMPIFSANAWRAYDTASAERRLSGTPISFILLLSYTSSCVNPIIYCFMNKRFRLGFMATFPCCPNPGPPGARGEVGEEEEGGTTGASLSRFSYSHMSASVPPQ", "experiment": "FLIPR functional screen", "type": "cell-based", "conditions": "antagonist mode"}, "ADRB1": {"target": "T7, ADRB1 (Homo sapiens, UniProt P08588)", "T7 construct": "purchased Millipore (outsourced screen)", "experiment": "FLIPR functional screen", "type": "cell-based", "conditions": "antagonist mode"}, "ADRB3": {"target": "T8, ADRB3 (Homo sapiens, UniProt P13945)", "T8 construct": "purchased Millipore (outsourced screen)", "experiment": "FLIPR functional screen", "type": "cell-based", "conditions": "antagonist mode"}, "MC2": {"target": "T9, MC2 (Homo sapiens, UniProt Q01718)", "T9 construct": "Millipore", "experiment": "FLIPR functional screen", "type": "cell-based", "conditions": "antagonist mode"}, "D1": {"target": "T10, D1 (Homo sapiens, UniProt P21728)", "T10 construct": "Millipore", "T10 sequence (P21728 whole entry)": "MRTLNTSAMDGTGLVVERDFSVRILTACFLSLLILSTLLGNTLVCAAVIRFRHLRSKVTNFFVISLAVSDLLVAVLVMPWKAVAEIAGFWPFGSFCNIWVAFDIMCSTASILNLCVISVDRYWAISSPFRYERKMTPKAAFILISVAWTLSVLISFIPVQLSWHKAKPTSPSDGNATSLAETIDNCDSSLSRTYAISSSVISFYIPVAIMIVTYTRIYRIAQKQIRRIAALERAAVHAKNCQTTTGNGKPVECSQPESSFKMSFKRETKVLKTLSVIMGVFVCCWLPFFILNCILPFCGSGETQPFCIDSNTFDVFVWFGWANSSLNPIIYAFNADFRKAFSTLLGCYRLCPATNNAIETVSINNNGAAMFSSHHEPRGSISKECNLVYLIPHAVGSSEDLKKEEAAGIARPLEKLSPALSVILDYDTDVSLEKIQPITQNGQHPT", "experiment": "FLIPR functional screen", "type": "cell-based", "conditions": "antagonist mode"}, "Prostanoid EP4": {"target": "T11, Prostanoid EP4 (Homo sapiens, UniProt P35408)", "T11 construct": "host or cells: EP4-expressing membrane preparations", "T11 sequence (P35408 whole entry)": "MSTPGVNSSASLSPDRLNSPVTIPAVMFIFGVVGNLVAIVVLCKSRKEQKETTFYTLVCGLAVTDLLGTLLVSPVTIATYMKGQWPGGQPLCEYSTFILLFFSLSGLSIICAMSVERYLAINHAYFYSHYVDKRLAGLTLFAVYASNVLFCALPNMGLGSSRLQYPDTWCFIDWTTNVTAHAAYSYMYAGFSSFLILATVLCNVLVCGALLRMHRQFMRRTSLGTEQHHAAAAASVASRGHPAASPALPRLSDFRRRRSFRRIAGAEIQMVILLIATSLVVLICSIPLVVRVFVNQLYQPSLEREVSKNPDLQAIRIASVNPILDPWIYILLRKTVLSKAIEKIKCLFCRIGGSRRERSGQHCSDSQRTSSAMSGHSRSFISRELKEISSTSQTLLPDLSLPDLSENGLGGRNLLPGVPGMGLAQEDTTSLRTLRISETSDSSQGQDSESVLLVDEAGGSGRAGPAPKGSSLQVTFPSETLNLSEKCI", "experiment": "Competitive radioligand binding (MDS Pharma)", "experimental": "Radioligand EP4 binding. The radioligand EP4 binding assay measures displacement of radiolabelled PGE2 from EP4-expressing membrane preparations. Radioligand EP4 binding assay kit was purchased from Millipore, and the assay was performed according to instructions of the manufacture."}, "VPAC1": {"target": "T12, VPAC1 (Homo sapiens, UniProt P32241)", "T12 construct": "Millipore", "experiment": "FLIPR functional screen", "type": "cell-based", "conditions": "antagonist mode"}, "[1]": {"target": "T13, Leukotriene, Cysteinyl CysLT1 (Homo sapiens, UniProt Q9Y271)", "T13 construct": "purchased MDS Pharma (outsourced assay)", "T13 sequence (Q9Y271 whole entry)": "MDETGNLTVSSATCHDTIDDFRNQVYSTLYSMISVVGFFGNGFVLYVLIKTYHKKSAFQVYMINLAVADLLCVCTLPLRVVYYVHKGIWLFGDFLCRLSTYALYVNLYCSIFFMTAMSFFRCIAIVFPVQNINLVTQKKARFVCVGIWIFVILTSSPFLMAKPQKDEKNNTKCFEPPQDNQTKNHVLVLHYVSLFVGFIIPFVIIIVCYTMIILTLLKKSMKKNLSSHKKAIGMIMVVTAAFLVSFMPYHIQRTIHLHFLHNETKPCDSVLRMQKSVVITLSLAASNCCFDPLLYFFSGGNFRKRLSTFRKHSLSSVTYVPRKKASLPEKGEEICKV", "experiment": "Competitive radioligand binding (MDS Pharma)"}, "BB3": {"target": "T14, BB3 (Homo sapiens, UniProt P32247)", "T14 construct": "Millipore", "experiment": "FLIPR functional screen", "type": "cell-based", "conditions": "antagonist mode"}, "GPR103": {"target": "T15, GPR103 (Homo sapiens, UniProt Q96P65)", "T15 construct": "Millipore", "T15 sequence (Q96P65 whole entry, species assumed)": "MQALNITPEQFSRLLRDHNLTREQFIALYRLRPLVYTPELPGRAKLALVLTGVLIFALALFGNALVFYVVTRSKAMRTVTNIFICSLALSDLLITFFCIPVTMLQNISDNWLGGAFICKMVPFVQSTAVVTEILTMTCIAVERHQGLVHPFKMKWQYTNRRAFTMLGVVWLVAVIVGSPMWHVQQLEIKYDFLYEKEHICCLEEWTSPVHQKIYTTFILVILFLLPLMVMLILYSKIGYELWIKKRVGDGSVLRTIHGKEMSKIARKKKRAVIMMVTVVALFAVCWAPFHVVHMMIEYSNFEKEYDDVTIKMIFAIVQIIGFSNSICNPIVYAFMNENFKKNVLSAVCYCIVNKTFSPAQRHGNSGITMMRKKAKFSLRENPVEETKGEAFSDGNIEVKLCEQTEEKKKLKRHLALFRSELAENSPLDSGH", "experiment": "FLIPR functional screen", "type": "cell-based", "conditions": "antagonist mode"}, "5-HT1B": {"target": "T16, 5-HT1B (Homo sapiens, UniProt P28222)", "T16 construct": "purchased Millipore (outsourced screen)", "T16 sequence (P28222 whole entry)": "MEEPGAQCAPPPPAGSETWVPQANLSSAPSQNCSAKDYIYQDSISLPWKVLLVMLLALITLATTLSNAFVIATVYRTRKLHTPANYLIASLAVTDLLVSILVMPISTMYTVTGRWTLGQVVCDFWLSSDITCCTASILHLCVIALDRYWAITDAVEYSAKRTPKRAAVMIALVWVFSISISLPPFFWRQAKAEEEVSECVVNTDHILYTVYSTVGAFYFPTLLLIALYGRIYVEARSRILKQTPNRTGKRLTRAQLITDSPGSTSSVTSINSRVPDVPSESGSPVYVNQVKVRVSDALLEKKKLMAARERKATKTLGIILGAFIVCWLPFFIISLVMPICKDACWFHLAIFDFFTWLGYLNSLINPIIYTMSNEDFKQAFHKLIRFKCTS", "experiment": "FLIPR functional screen", "type": "cell-based", "conditions": "antagonist mode"}, "BB2": {"target": "T17, BB2 (Homo sapiens, UniProt P30550)", "T17 construct": "Millipore", "T17 sequence (P30550 whole entry)": "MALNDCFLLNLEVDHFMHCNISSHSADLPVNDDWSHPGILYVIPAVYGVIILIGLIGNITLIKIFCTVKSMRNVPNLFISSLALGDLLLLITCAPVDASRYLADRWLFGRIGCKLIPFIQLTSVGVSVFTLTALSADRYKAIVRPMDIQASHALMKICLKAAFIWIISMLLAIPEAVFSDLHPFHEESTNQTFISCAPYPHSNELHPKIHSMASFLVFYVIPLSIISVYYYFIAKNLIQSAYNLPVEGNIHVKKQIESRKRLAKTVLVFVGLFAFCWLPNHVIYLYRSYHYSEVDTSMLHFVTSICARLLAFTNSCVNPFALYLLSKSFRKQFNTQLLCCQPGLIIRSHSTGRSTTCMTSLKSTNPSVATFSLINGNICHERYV", "experiment": "FLIPR functional screen", "type": "cell-based", "conditions": "antagonist mode"}, "GLP1": {"target": "T18, GLP1 (Homo sapiens, UniProt P43220)", "T18 construct": "Millipore", "T18 sequence (P43220 24-463)": "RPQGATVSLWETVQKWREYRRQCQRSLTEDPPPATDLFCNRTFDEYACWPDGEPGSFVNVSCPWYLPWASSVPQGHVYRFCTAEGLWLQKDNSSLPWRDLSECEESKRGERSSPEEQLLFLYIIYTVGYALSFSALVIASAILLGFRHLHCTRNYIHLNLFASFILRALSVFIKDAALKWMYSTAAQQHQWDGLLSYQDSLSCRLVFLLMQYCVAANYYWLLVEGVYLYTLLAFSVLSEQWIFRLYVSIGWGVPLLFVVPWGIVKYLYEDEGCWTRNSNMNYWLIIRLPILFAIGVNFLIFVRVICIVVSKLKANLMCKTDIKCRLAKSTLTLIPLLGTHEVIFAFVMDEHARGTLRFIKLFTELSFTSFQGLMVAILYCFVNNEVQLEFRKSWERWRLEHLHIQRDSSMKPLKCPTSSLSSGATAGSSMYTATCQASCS", "experiment": "FLIPR functional screen", "type": "cell-based", "conditions": "antagonist mode"}, "ETB": {"target": "T19, ETB (Homo sapiens, UniProt P24530)", "T19 construct": "Millipore", "T19 sequence (P24530 27-442, species assumed)": "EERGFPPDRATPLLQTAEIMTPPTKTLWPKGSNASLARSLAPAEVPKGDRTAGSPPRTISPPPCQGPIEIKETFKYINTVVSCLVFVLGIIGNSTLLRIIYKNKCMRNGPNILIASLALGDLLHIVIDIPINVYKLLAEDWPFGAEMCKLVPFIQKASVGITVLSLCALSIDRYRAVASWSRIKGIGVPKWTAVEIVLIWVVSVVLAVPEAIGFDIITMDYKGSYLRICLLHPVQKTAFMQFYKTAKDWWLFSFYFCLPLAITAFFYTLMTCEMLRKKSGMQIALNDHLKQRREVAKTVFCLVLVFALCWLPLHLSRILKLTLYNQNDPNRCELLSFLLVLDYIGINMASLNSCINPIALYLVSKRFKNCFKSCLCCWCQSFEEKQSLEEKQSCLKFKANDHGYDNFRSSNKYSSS", "experiment": "FLIPR functional screen", "type": "cell-based", "conditions": "antagonist mode"}, "FPR1": {"target": "T20, FPR1 (Homo sapiens, UniProt P21462)", "T20 construct": "Millipore", "experiment": "FLIPR functional screen", "type": "cell-based", "conditions": "antagonist mode"}, "CCR3": {"target": "T21, CCR3 (Homo sapiens, UniProt P51677)", "T21 construct": "Millipore", "experiment": "FLIPR functional screen", "type": "cell-based", "conditions": "antagonist mode"}, "ADRA1A": {"target": "T22, ADRA1A (Homo sapiens, UniProt P35348)", "T22 construct": "purchased Millipore (outsourced screen)", "experiment": "FLIPR functional screen", "type": "cell-based", "conditions": "antagonist mode"}, "[2]": {"target": "T23, Leukotriene, Cysteinyl CysLT2 (Homo sapiens, UniProt Q9NS75)", "T23 construct": "purchased MDS Pharma (outsourced assay)", "T23 sequence (Q9NS75 whole entry)": "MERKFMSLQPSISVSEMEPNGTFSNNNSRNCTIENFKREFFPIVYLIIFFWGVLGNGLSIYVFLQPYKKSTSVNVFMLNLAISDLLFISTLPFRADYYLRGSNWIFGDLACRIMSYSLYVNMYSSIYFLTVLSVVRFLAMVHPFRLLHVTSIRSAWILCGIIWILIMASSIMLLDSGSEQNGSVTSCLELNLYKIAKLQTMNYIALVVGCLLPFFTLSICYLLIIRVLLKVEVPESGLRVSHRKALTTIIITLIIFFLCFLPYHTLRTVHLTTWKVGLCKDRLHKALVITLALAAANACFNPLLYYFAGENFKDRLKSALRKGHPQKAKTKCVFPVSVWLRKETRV", "experiment": "Competitive radioligand binding (MDS Pharma)"}, "RDKR2": {"target": "T24, RDKR2 (Homo sapiens, UniProt P30411)", "T24 construct": "Millipore", "experiment": "FLIPR functional screen", "type": "cell-based", "conditions": "antagonist mode"}, "CCR10": {"target": "T25, CCR10 (Homo sapiens, UniProt P46092)", "T25 construct": "Millipore", "experiment": "FLIPR functional screen", "type": "cell-based", "conditions": "antagonist mode"}, "GAL1": {"target": "T26, GAL1 (Homo sapiens, UniProt P47211)", "T26 construct": "Millipore", "experiment": "FLIPR functional screen", "type": "cell-based", "conditions": "antagonist mode"}, "A2B": {"target": "T27, A2B (Homo sapiens, UniProt P29275)", "T27 construct": "purchased Millipore (outsourced screen)", "experiment": "FLIPR functional screen", "type": "cell-based", "conditions": "antagonist mode"}},
  "data": [
    {"smiles": "CCN1C(=O)N2Cc3cc(OC)cc(OC)c3[C@@H](C)C=C2C12CCN(Cc1cccn1C)CC2", "note": "[ER-819924-01]", "values": [
      {"measurement": "inhibition at 1 µM", "setting": "PAC1", "value": 4.1, "unit": "%"},
      {"measurement": "inhibition at 1 µM", "setting": "PAR4", "value": -38.6, "unit": "%"},
      {"measurement": "inhibition at 1 µM", "setting": "CB2", "value": 9.3, "unit": "%"},
      {"measurement": "X-ray score", "setting": "CIA mouse; 30 mg/kg, separate study", "value": "significantly improved X-ray score"},
      {"measurement": "ED50", "setting": "CIA mouse; Mus musculus, 480 h, partial therapeutic dosing, oral daily from day 20", "value": "~10", "unit": "mg/kg"},
      {"measurement": "arthritis development under full therapeutic dosing", "setting": "CIA mouse; dosed after induction of disease, 10 mg/kg", "value": "effectively prevented further arthritis development"},
      {"measurement": "inhibition at 1 µM", "setting": "EP2", "value": 4.2, "unit": "%"},
      {"measurement": "inhibition at 1 µM", "setting": "GPR41", "value": -7.3, "unit": "%"},
      {"measurement": "inhibition at 1 µM", "setting": "CCK1", "value": 13, "unit": "%"},
      {"measurement": "inhibition at 1 µM", "setting": "ADRB1", "value": -15.3, "unit": "%"},
      {"measurement": "inhibition at 1 µM", "setting": "ADRB3", "value": 11.4, "unit": "%"},
      {"measurement": "inhibition at 1 µM", "setting": "MC2", "value": -1, "unit": "%"},
      {"measurement": "inhibition at 1 µM", "setting": "D1", "value": 14, "unit": "%"},
      {"measurement": "% INHIBITION", "setting": "Prostanoid EP4; CONC. 0.1 μm", "value": 21, "unit": "%"},
      {"measurement": "% INHIBITION", "setting": "Prostanoid EP4; CONC. 1 μm", "value": 71, "unit": "%"},
      {"measurement": "binding selectivity for EP4 over other EP/prostanoid/leukotriene receptors", "setting": "Prostanoid EP4; competitive radioligand binding assay", "value": "selectively bind to EP4"},
      {"measurement": "inhibition at 1 µM", "setting": "VPAC1", "value": 4.6, "unit": "%"},
      {"measurement": "% INHIBITION", "setting": "[1]; CONC. 0.1 μm", "value": "−1", "unit": "%"},
      {"measurement": "% INHIBITION", "setting": "[1]; CONC. 1 μm", "value": "−5", "unit": "%"},
      {"measurement": "inhibition at 1 µM", "setting": "BB3", "value": 6.2, "unit": "%"},
      {"measurement": "inhibition at 1 µM", "setting": "GPR103", "value": 0.4, "unit": "%"},
      {"measurement": "inhibition at 1 µM", "setting": "5-HT1B", "value": 3, "unit": "%"},
      {"measurement": "inhibition at 1 µM", "setting": "BB2", "value": 0.6, "unit": "%"},
      {"measurement": "inhibition at 1 µM", "setting": "GLP1", "value": 10.6, "unit": "%"},
      {"measurement": "inhibition at 1 µM", "setting": "ETB", "value": 6.2, "unit": "%"},
      {"measurement": "inhibition at 1 µM", "setting": "FPR1", "value": 8, "unit": "%"},
      {"measurement": "inhibition at 1 µM", "setting": "CCR3", "value": -5.6, "unit": "%"},
      {"measurement": "inhibition at 1 µM", "setting": "ADRA1A", "value": 17.6, "unit": "%"},
      {"measurement": "% INHIBITION", "setting": "[2]; CONC. 0.1 μm", "value": 3, "unit": "%"},
      {"measurement": "% INHIBITION", "setting": "[2]; CONC. 1 μm", "value": 0, "unit": "%"},
      {"measurement": "inhibition at 1 µM", "setting": "RDKR2", "value": 1.7, "unit": "%"},
      {"measurement": "inhibition at 1 µM", "setting": "CCR10", "value": 2.2, "unit": "%"},
      {"measurement": "inhibition at 1 µM", "setting": "GAL1", "value": 9.1, "unit": "%"},
      {"measurement": "inhibition at 1 µM", "setting": "A2B", "value": 6.9, "unit": "%"}
    ]}
  ]
}
